Data reported in ChEMBL document CHEMBL5678818, “Discovery of potent SOS1 inhibitors that block RAS activation via disruption of the RAS-SOS1 interaction” (Proc Natl Acad Sci U S A, 2019).

What was measured:
[1] = target: Calcium/calmodulin-dependent protein kinase type 1B (Homo sapiens) (UniProt Q6P2M8); experiment: Inhibition of CAMK1B (unknown origin) assessed as residual activity at 1000 nM by KINOMEscan analysis relative to control
[2] = target: T1, Non-receptor tyrosine-protein kinase TNK1 (Homo sapiens) (UniProt Q13470); experiment: Inhibition of TNK1 (unknown origin) assessed as residual activity at 100 nM by KINOMEscan analysis relative to control
T1 sequence (whole entry): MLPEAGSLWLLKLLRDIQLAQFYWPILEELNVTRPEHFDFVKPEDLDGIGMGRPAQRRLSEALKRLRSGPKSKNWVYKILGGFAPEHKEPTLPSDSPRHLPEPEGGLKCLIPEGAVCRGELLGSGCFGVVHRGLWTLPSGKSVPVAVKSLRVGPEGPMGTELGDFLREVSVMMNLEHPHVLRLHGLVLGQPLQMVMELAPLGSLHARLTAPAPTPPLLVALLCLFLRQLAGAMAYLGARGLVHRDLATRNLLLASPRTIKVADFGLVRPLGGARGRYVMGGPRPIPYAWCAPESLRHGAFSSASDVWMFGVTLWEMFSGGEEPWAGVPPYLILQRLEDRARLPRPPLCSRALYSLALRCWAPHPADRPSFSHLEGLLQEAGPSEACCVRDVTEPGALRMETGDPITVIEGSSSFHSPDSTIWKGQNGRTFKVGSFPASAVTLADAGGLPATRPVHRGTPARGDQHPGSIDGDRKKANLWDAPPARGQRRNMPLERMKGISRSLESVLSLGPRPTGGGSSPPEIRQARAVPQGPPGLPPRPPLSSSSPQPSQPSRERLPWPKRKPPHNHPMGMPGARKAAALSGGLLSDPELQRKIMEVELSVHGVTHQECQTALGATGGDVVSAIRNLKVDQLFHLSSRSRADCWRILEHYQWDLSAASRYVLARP

[3] = target: Calcium/calmodulin-dependent protein kinase kinase 2 (Homo sapiens) (UniProt Q96RR4); experiment: Inhibition of CAMKK2 (unknown origin) assessed as residual activity at 100 nM by KINOMEscan analysis relative to control
Calcium/calmodulin-dependent protein kinase kinase 2 (Homo sapiens), sequence (Q96RR4 2-588 limits assumed): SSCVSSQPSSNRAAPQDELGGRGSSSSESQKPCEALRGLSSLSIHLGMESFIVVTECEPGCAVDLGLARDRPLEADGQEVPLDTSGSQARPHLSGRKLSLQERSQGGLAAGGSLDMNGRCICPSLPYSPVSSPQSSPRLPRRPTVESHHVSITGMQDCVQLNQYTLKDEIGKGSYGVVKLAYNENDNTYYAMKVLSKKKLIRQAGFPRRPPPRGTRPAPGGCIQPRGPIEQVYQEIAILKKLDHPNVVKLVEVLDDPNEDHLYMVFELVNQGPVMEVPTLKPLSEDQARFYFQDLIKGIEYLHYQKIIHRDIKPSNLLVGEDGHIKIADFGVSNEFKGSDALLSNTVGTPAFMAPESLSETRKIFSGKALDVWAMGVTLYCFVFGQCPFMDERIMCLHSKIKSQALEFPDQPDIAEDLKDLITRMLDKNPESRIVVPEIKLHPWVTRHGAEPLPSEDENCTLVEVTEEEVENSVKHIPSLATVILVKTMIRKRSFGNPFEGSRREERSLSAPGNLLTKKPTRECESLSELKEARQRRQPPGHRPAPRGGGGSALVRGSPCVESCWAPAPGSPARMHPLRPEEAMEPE

[4] = target: T2, Megakaryocyte-associated tyrosine-protein kinase (Homo sapiens) (UniProt P42679); experiment: Inhibition of CTK (unknown origin) assessed as residual activity at 100 nM by KINOMEscan analysis relative to control
T2 sequence (whole entry): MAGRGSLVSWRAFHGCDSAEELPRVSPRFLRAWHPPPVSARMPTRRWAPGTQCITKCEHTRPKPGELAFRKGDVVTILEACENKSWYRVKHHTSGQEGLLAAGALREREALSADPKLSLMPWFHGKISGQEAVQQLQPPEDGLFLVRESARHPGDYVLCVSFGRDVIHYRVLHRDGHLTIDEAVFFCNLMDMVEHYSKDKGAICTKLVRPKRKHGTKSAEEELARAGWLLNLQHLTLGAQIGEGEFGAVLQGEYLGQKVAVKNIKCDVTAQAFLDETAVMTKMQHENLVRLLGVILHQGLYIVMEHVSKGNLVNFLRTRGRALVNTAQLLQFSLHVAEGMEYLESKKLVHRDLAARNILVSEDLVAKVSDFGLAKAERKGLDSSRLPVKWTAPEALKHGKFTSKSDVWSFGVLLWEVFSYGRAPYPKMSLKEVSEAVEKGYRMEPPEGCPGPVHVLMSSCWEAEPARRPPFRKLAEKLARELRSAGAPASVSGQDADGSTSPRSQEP

[5] = target: Dual specificity tyrosine-phosphorylation-regulated kinase 1A (Homo sapiens) (UniProt Q13627); experiment: Inhibition of DYRK1A (unknown origin) assessed as residual activity at 100 nM by KINOMEscan analysis relative to control
[6] = target: RAC-alpha serine/threonine-protein kinase (Homo sapiens) (UniProt P31749); experiment: Inhibition of AKT1 (unknown origin) assessed as residual activity at 100 nM by KINOMEscan analysis relative to control
[7] = target: Cyclin-dependent kinase 4/cyclin D1 (Homo sapiens) (UniProt P11802+P24385); experiment: Inhibition of CDK4-cyclin D1 (unknown origin) assessed as residual activity at 100 nM by KINOMEscan analysis relative to control; format: protein-complex assay
[8] = target: AP2-associated protein kinase 1 (Homo sapiens) (UniProt Q2M2I8); experiment: Inhibition of AAK1 (unknown origin) assessed as residual activity at 100 nM by KINOMEscan analysis relative to control
AP2-associated protein kinase 1 (Homo sapiens), sequence (Q2M2I8 whole entry, looked up): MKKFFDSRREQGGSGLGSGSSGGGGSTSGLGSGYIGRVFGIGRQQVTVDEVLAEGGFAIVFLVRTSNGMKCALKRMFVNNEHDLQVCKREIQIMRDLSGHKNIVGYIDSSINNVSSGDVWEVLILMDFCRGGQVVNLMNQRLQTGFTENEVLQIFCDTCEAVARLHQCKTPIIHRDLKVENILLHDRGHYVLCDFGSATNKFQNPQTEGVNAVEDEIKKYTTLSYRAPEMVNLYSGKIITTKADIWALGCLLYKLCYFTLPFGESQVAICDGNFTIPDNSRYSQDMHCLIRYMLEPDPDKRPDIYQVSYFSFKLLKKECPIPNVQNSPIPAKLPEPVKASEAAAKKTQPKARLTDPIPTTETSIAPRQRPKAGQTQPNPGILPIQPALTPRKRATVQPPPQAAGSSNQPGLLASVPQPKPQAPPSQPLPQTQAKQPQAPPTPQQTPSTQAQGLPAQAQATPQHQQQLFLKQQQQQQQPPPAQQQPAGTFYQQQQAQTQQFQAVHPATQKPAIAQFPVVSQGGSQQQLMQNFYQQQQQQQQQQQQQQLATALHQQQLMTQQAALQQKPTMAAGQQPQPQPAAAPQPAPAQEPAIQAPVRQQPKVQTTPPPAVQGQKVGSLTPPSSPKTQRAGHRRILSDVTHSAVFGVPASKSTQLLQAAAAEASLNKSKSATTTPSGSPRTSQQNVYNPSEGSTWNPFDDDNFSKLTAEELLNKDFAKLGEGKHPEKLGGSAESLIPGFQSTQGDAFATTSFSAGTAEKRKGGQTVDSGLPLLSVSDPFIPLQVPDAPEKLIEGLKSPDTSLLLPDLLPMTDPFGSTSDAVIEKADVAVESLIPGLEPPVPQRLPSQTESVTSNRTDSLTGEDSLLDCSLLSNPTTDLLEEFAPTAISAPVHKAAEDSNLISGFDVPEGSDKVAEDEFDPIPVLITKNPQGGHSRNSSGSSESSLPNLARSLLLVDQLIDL

[9] = target: T3, Interleukin-1 receptor-associated kinase 4 (Homo sapiens) (UniProt Q9NWZ3); experiment: Inhibition of IRAK4 (unknown origin) assessed as residual activity at 100 nM by KINOMEscan analysis relative to control
T3 sequence (whole entry): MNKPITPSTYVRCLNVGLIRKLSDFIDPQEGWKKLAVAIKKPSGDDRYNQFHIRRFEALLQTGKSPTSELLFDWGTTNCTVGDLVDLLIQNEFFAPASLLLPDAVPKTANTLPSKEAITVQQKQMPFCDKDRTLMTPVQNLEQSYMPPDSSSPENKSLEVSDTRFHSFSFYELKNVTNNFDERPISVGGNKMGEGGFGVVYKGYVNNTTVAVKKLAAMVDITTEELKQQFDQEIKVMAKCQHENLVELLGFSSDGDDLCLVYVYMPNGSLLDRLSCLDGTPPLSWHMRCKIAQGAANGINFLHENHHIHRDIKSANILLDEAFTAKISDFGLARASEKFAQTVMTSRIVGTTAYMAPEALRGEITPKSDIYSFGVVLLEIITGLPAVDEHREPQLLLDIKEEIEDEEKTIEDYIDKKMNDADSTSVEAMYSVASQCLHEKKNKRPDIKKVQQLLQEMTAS

[10] = target: Calcium/calmodulin-dependent protein kinase type II subunit delta (Homo sapiens) (UniProt Q13557); experiment: Inhibition of CAMK2D (unknown origin) assessed as residual activity at 100 nM by KINOMEscan analysis relative to control
[11] = target: Tyrosine-protein kinase Lck (Homo sapiens) (UniProt P06239); experiment: Inhibition of LCK (unknown origin) assessed as residual activity at 100 nM by KINOMEscan analysis relative to control
[12] = target: Insulin-like growth factor 1 receptor (Homo sapiens) (UniProt P08069); experiment: Inhibition of IGF1R (unknown origin) assessed as residual activity at 100 nM by KINOMEscan analysis relative to control
Insulin-like growth factor 1 receptor (Homo sapiens), sequence (P08069 31-736 limits assumed): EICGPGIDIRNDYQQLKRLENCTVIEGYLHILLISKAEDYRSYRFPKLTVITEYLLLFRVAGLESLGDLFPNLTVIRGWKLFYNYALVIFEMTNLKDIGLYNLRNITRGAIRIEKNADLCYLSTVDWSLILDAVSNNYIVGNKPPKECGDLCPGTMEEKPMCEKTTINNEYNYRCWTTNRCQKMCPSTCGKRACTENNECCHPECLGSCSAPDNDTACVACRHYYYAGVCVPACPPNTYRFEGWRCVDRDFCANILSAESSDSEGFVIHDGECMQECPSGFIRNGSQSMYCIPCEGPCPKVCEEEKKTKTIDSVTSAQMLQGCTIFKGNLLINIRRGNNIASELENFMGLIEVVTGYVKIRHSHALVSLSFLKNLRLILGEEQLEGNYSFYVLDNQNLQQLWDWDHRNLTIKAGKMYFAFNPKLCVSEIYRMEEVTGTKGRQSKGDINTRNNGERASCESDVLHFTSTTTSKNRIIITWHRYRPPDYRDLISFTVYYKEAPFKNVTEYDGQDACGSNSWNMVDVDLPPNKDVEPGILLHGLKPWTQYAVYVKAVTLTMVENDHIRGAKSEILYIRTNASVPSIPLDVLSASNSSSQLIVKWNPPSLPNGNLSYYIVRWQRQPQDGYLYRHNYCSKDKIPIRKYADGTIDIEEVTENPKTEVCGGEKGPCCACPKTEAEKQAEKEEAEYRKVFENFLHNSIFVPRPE
Insulin-like growth factor 1 receptor (Homo sapiens), sequence (P08069 741-1367 limits assumed): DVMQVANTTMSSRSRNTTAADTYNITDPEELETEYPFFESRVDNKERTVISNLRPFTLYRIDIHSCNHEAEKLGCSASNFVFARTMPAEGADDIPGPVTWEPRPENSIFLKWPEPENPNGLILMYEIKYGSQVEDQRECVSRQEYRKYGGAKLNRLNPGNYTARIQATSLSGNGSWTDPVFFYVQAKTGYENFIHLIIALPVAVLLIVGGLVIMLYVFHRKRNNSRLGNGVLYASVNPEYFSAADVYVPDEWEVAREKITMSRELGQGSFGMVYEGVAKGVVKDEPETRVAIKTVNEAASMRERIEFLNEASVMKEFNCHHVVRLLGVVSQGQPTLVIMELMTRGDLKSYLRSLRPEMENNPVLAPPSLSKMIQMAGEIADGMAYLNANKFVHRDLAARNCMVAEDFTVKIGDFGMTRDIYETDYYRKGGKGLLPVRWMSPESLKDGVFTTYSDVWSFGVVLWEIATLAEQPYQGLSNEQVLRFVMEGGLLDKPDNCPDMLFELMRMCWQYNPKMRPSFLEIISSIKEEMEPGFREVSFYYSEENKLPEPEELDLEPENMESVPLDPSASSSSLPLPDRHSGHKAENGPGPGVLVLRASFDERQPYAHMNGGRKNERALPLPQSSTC

[13] = target: Tyrosine-protein kinase ABL2 (Homo sapiens) (UniProt P42684); experiment: Inhibition of ABL2 (unknown origin) assessed as residual activity at 100 nM by KINOMEscan analysis relative to control
Tyrosine-protein kinase ABL2 (Homo sapiens), sequence (P42684 whole entry): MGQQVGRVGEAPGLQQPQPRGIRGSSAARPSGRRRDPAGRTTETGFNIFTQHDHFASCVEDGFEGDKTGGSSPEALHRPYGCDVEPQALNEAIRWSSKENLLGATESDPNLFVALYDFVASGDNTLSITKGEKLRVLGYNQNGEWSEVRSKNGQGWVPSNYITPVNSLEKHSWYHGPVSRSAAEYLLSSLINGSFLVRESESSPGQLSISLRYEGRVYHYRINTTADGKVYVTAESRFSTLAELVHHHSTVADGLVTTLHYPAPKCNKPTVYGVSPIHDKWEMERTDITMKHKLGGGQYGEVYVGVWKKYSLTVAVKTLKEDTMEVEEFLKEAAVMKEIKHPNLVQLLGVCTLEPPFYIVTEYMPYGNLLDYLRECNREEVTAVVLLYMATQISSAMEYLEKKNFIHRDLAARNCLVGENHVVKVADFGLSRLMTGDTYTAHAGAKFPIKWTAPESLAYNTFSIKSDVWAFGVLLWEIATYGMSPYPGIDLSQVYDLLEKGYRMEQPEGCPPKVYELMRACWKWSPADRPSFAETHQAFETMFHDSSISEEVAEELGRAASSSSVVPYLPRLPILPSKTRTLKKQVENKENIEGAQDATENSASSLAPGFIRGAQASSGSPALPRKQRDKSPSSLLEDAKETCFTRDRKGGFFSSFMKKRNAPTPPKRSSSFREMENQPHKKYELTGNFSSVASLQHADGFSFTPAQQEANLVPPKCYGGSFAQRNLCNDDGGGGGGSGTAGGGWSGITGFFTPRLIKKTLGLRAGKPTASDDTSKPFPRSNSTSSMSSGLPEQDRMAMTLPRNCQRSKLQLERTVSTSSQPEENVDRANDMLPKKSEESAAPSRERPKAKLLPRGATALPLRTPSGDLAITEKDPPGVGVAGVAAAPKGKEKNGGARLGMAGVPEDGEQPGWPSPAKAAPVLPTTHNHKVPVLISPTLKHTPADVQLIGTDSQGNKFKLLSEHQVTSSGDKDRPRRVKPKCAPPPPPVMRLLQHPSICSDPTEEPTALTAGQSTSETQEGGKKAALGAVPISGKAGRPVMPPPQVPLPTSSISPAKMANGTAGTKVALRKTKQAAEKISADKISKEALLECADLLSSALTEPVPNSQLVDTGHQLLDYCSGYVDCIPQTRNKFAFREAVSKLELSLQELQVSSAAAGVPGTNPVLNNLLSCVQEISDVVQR

[14] = tested on: Tyrosine-protein kinase ABL1 (Homo sapiens), P00519 [E255K]; experiment: Inhibition of phosphorylated ABL1 E255K mutant (unknown origin) assessed as residual activity at 100 nM by KINOMEscan analysis relative to control
[15] = target: Tyrosine-protein kinase Fes/Fps (Homo sapiens) (UniProt P07332); experiment: Inhibition of FES (unknown origin) assessed as residual activity at 100 nM by KINOMEscan analysis relative to control
Tyrosine-protein kinase Fes/Fps (Homo sapiens), sequence (P07332 whole entry): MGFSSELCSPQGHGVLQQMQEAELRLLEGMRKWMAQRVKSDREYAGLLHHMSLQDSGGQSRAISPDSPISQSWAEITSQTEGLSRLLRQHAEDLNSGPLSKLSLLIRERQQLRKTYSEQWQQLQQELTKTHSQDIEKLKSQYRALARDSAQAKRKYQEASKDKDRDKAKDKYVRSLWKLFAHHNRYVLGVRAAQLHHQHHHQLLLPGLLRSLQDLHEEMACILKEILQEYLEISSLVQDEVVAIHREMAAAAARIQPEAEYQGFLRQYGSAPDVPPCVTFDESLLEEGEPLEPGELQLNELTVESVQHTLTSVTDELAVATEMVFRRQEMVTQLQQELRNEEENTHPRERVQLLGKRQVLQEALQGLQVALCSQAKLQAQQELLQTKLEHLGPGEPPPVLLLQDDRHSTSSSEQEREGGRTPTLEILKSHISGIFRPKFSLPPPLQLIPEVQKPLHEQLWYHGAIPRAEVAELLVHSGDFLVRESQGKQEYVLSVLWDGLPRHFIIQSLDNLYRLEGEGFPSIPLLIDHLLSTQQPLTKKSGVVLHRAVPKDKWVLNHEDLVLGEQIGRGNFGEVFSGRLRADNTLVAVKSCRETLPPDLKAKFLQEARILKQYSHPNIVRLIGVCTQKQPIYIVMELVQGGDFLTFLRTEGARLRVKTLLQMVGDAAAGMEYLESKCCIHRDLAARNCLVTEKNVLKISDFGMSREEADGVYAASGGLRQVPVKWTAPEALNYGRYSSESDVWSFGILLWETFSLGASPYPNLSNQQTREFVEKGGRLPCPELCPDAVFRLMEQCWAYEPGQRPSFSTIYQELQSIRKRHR

SMILES | Activity [1] [%] | Activity [2] [%] | Activity [3] [%] | Activity [4] [%] | Activity [5] [%] | Activity [6] [%] | Activity [7] [%] | Activity [8] [%] | Activity [9] [%] | Activity [10] [%] | Activity [11] [%] | Activity [12] [%] | Activity [13] [%] | Activity [14] [%] | Activity [15] [%]
COc1cc2nc(C)nc(N[C@H](C)c3cccc(-c4cn[nH]c4)c3)c2cc1OC | 85 | – | – | – | – | – | – | – | – | – | – | – | – | – | –
COc1cc2ncnc(N[C@H](C)c3cccc4ccccc34)c2cc1OC | – | 86 | 60 | 64 | 90 | 79 | 92 | 74 | 94 | 70 | 100 | 82 | 81 | 99 | 78
